Assay results published in US9233110B2, “Protein nanocarriers for topical delivery” (priority 2008, dated 2016).

What was measured:
[1] = test system: skin; details: Cornwell and Barry 1993; cited from earlier work
[2] = in words; cited from earlier work
[3] = cited from earlier work
[4] = test system: porcine dermatomed skin; test: Skin penetration of rhodamine 123 (fluorescence and confocal microscopy); format: in vitro ADME; details: 10 μg rhodamine 123 equivalent, 6 hours, cryosections
Protocol: For stratum corneum (SC) 0-20 μm and for epidermis 20-100 μm XZ optical sections from confocal microscopic images were used for quantifying the fluorescence pixels. The nanoparticles were prepared using the method described in Table 8-1.
Later the skin was sectioned with cryotome and observed under a fluorescent microscope.

| penetration into skin [4] | SMILES | skin permeability [1] | solubility in water [2] | Log P [3] |
| --- | --- | --- | --- | --- |
| – | O=c1[nH]cc(F)c(=O)[nH]1 [5-Fluorouracil (5-FU), 5-Fluorouracil] | poorly permeable through skin | partially soluble in cold water | – |
| restricted to the top layer of skin (SC) | COC(=O)c1ccccc1-c1c2ccc(=N)cc-2oc2cc(N)ccc12.Cl [Rhodamine 123] | – | – | 1.2 |
